{"source": "paper PMC9037111", "about": "“Structure-based design, synthesis, and biological evaluation of novel piperine–resveratrol hybrids as antiproliferative agents targeting SIRT-2” (RSC Advances, 2021)", "assay_in_all_cases": "cells", "set-up_in_all_cases": "species or system NCI-60 human tumour cell lines; NCI-60 one-dose screen at 10 uM, percent growth inhibition versus untreated control cells", "key": {"786-0": {"test_system": "786-0", "conditions": "Homo sapiens, 786-0; growth inhibition, one dose; read-out: Growth% inhibition / 5e"}, "A549/ATCC": {"test_system": "A549/ATCC", "conditions": "Homo sapiens, A549; growth inhibition, one dose; read-out: Growth% inhibition / 5e"}, "BT-549": {"test_system": "BT-549", "conditions": "Homo sapiens, BT-549; growth inhibition, one dose; read-out: Growth% inhibition / 5e"}, "CCRF-CEM": {"test_system": "CCRF-CEM", "conditions": "Homo sapiens, CCRF-CEM; growth inhibition, one dose; read-out: Growth% inhibition / 5e"}, "EKVX": {"test_system": "EKVX", "conditions": "Homo sapiens, EKVX; growth inhibition, one dose; read-out: Growth% inhibition / 5e"}, "HOP-92": {"test_system": "HOP-92", "conditions": "Homo sapiens, HOP-92; growth inhibition, one dose; read-out: Growth% inhibition / 5e"}, "IGROV1": {"test_system": "IGROV1", "conditions": "Homo sapiens, IGROV-1; growth inhibition, one dose; read-out: Growth% inhibition / 5e"}, "K-562": {"test_system": "K-562", "conditions": "Homo sapiens, K562; growth inhibition, one dose; read-out: Growth% inhibition / 5e"}, "LOX IMVI": {"test_system": "LOX IMVI", "conditions": "Homo sapiens, LOX IMVI; growth inhibition, one dose; read-out: Growth% inhibition / 5e"}, "MDA-MB-231/ATCC": {"test_system": "MDA-MB-231/ATCC", "conditions": "Homo sapiens, MDA-MB-231; growth inhibition, one dose; read-out: Growth% inhibition / 5e"}, "MOLT-4": {"test_system": "MOLT-4", "conditions": "Homo sapiens, MOLT-4; growth inhibition, one dose; read-out: Growth% inhibition / 5e"}, "OVCAR-5": {"test_system": "OVCAR-5", "conditions": "Homo sapiens, OVCAR-5; growth inhibition, one dose; read-out: Growth% inhibition / 5e"}, "PC-3": {"test_system": "PC-3", "conditions": "Homo sapiens, PC-3; growth inhibition, one dose; read-out: Growth% inhibition / 5e"}, "SK-MEL-28": {"test_system": "SK-MEL-28", "conditions": "Homo sapiens, SK-MEL-28; growth inhibition, one dose; read-out: Growth% inhibition / 5e"}, "SN12C": {"test_system": "SN12C", "conditions": "Homo sapiens, SN12C; growth inhibition, one dose; read-out: Growth% inhibition / 5e"}, "SNB-19": {"test_system": "SNB-19", "conditions": "Homo sapiens, SNB-19; growth inhibition, one dose; read-out: Growth% inhibition / 5e"}, "SR": {"test_system": "SR", "conditions": "Homo sapiens, SR; growth inhibition, one dose; read-out: Growth% inhibition / 5e"}, "UACC-62": {"test_system": "UACC-62", "conditions": "Homo sapiens, UACC-62; growth inhibition, one dose; read-out: Growth% inhibition / 5e"}}, "data": [{"molecule": "CCN(CC)c1ccc(/C=N/NC(=O)/C=C/C=C/c2ccc3c(c2)OCO3)c(O)c1", "note": "[5e, (2E,4E)-5-(Benzo[d][1,3]dioxol-5-yl)-N′-((E)-4-(diethylamino)-2-hydroxybenzylidene)penta-2,4-dienehydrazide]", "values": [{"measurement": "inhibition at 10 µM", "setting": "786-0", "result": 52.8, "unit": "%"}, {"measurement": "inhibition at 10 µM", "setting": "A549/ATCC", "result": 46.7, "unit": "%"}, {"measurement": "inhibition at 10 µM", "setting": "BT-549", "result": 48.2, "unit": "%"}, {"measurement": "inhibition at 10 µM", "setting": "CCRF-CEM", "result": 78.3, "unit": "%"}, {"measurement": "inhibition at 10 µM", "setting": "EKVX", "result": 47.8, "unit": "%"}, {"measurement": "inhibition at 10 µM", "setting": "HOP-92", "result": 51.6, "unit": "%"}, {"measurement": "inhibition at 10 µM", "setting": "IGROV1", "result": 61.8, "unit": "%"}, {"measurement": "inhibition at 10 µM", "setting": "K-562", "result": 82.4, "unit": "%"}, {"measurement": "inhibition at 10 µM", "setting": "LOX IMVI", "result": 81.8, "unit": "%"}, {"measurement": "inhibition at 10 µM", "setting": "MDA-MB-231/ATCC", "result": 56.8, "unit": "%"}, {"measurement": "inhibition at 10 µM", "setting": "MOLT-4", "result": 81.7, "unit": "%"}, {"measurement": "inhibition at 10 µM", "setting": "OVCAR-5", "result": 39.1, "unit": "%"}, {"measurement": "inhibition at 10 µM", "setting": "PC-3", "result": 59.1, "unit": "%"}, {"measurement": "inhibition at 10 µM", "setting": "SK-MEL-28", "result": 48, "unit": "%"}, {"measurement": "inhibition at 10 µM", "setting": "SN12C", "result": 45.9, "unit": "%"}, {"measurement": "inhibition at 10 µM", "setting": "SNB-19", "result": 39, "unit": "%"}, {"measurement": "inhibition at 10 µM", "setting": "SR", "result": 82.4, "unit": "%"}, {"measurement": "inhibition at 10 µM", "setting": "UACC-62", "result": 70.9, "unit": "%"}]}]}
